Measured values taken from patent US20230085307A1, “PYRIDAZINONE COMPOUND AND HERBICIDE” (NISSAN CHEMICAL CORPORATION, priority 2019, published 2023).

Tests used:
Italian ryegrass [1] = assay: Test Example 5: herbicidal effect by foliage application, plastic box (Table 20, symbol K); type: in vivo, Italian ryegrass (Lolium multiflorum); settings: foliage application, 3 weeks after application
Outline: (§1)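 Foliar spray test: emulsion formulation diluted in water to a set application rate, sprayed onto 14-day-old plants raised in diluvial soil at 25° C to 30° C under glass. Both herbicidal effect and crop effect rated visually three weeks later.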

wild oat [2] = assay: Test Example 5: herbicidal effect by foliage application, plastic box (Table 20, symbol I); type: in vivo, wild oat (Avena fatua); settings: foliage application, 3 weeks after application
Outline: as §1

late watergrass = assay: Test Example 1: herbicidal activity, application before weed generation under submerged conditions (Table 16, symbol A); type: in vivo, late watergrass (Echinochloa oryzicola)
Outline: (§2)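 Submerged Wagner pots (alluvial soil, 4 cm water) sown with weed seeds and planted with 2.5-leaf rice seedlings; emulsifiable concentrate diluted in water applied to water surface on sowing day. Held in greenhouse at 25-30 °C; injury scored 0-5 by herbicidal rate after three weeks.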

redroot pigweed = assay: Test Example 4: herbicidal effect by soil treatment (Table 19, symbol N); type: in vivo, redroot pigweed (Amaranthus retroflexus)
Outline: (§3)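 Step 1: sow seeds in sterilized diluvial soil, cover ~1.5 cm. Step 2: spray diluted emulsion onto soil surface at predetermined rate. Step 3: greenhouse, 25–30° C, three weeks. Step 4: grade effect on each plant by earlier criteria.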

wild oat [3] = assay: Test Example 4: herbicidal effect by soil treatment (Table 19, symbol I); type: in vivo, wild oat (Avena fatua)
Outline: as §3

persian speedwell [4] = assay: Test Example 5: herbicidal effect by foliage application, plastic box (Table 20, symbol R); type: in vivo, Persian speedwell (Veronica persica); settings: foliage application, 3 weeks after application
Outline: as §1

blackgrass [5] = assay: Test Example 4: herbicidal effect by soil treatment (Table 19, symbol J); type: in vivo, blackgrass (Alopecurus myosuroides)
Outline: as §3

barnyard grass [6] = assay: Test Example 3: herbicidal effect by foliage application, Wagner pot (Table 18, symbol H); type: in vivo, barnyard grass (Echinochloa crus-galli)
Outline: (§4)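 Plants were sown in alluvial soil held under 0.1–0.5 cm standing water and grown 14 days in a greenhouse at 25–30 °C. An emulsifiable formulation, water-diluted to the set dose, was then sprayed onto the foliage, and effects were scored three weeks later using previously defined criteria.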

rice flat sedge = assay: Test Example 3: herbicidal effect by foliage application, Wagner pot (Table 18, symbol E); type: in vivo, rice flat sedge (Cyperus iria)
Outline: as §4

barnyard grass [7] = assay: Test Example 4: herbicidal effect by soil treatment (Table 19, symbol H); type: in vivo, barnyard grass (Echinochloa crus-galli)
Outline: as §3

green foxtail [8] = assay: Test Example 5: herbicidal effect by foliage application, plastic box (Table 20, symbol G); type: in vivo, green foxtail (Setaria viridis); settings: foliage application, 3 weeks after application
Outline: as §1

Italian ryegrass [9] = assay: Test Example 4: herbicidal effect by soil treatment (Table 19, symbol K); type: in vivo, Italian ryegrass (Lolium multiflorum)
Outline: as §3

southern crabgrass [10] = assay: Test Example 5: herbicidal effect by foliage application, plastic box (Table 20, symbol F); type: in vivo, southern crabgrass (Digitaria ciliaris); settings: foliage application, 3 weeks after application
Outline: as §1

green foxtail [11] = assay: Test Example 4: herbicidal effect by soil treatment (Table 19, symbol G); type: in vivo, green foxtail (Setaria viridis)
Outline: as §3

southern crabgrass [12] = assay: Test Example 4: herbicidal effect by soil treatment (Table 19, symbol F); type: in vivo, southern crabgrass (Digitaria ciliaris)
Outline: as §3

oval-leafed pondweed = assay: Test Example 1: herbicidal activity, application before weed generation under submerged conditions (Table 16, symbol C); type: in vivo, oval-leafed pondweed (Monochoria vaginalis)
Outline: as §2

chickweed = assay: Test Example 4: herbicidal effect by soil treatment (Table 19, symbol P); type: in vivo, common chickweed (Stellaria media)
Outline: as §3

windgrass [13] = assay: Test Example 5: herbicidal effect by foliage application, plastic box (Table 20, symbol L); type: in vivo, windgrass (Apera spica-venti); settings: foliage application, 3 weeks after application
Outline: as §1

velvetleaf [14] = assay: Test Example 4: herbicidal effect by soil treatment (Table 19, symbol M); type: in vivo, velvetleaf (Abutilon theophrasti)
Outline: as §3

velvetleaf [15] = assay: Test Example 5: herbicidal effect by foliage application, plastic box (Table 20, symbol M); type: in vivo, velvetleaf (Abutilon theophrasti); settings: foliage application, 3 weeks after application
Outline: as §1

lambsquarters [16] = assay: Test Example 4: herbicidal effect by soil treatment (Table 19, symbol O); type: in vivo, lambsquarters (Chenopodium album)
Outline: as §3

windgrass [17] = assay: Test Example 4: herbicidal effect by soil treatment (Table 19, symbol L); type: in vivo, windgrass (Apera spica-venti)
Outline: as §3

persian speedwell [18] = assay: Test Example 4: herbicidal effect by soil treatment (Table 19, symbol R); type: in vivo, Persian speedwell (Veronica persica)
Outline: as §3

barnyard grass [19] = assay: Test Example 5: herbicidal effect by foliage application, plastic box (Table 20, symbol H); type: in vivo, barnyard grass (Echinochloa crus-galli); settings: foliage application, 3 weeks after application
Outline: as §1

Japanese bulrush = assay: Test Example 1: herbicidal activity, application before weed generation under submerged conditions (Table 16, symbol B); type: in vivo, Japanese bulrush (Schoenoplectus juncoides)
Outline: as §2

Chinese sprangletop = assay: Test Example 3: herbicidal effect by foliage application, Wagner pot (Table 18, symbol D); type: in vivo, chinese sprangletop (Leptochloa chinensis)
Outline: as §4

blackgrass [20] = assay: Test Example 5: herbicidal effect by foliage application, plastic box (Table 20, symbol J); type: in vivo, blackgrass (Alopecurus myosuroides); settings: foliage application, 3 weeks after application
Outline: as §1

lambsquarters [21] = assay: Test Example 5: herbicidal effect by foliage application, plastic box (Table 20, symbol O); type: in vivo, lambsquarters (Chenopodium album); settings: foliage application, 3 weeks after application
Outline: as §1

CC=CCOc1ccc(-c2sc3ccccc3c2-c2c(O)c(C)nn(C)c2=O)cc1 [1-211]
effect on Italian ryegrass (K) (Italian ryegrass [1]; 80 g/ha): 3 (Herbicidal rate of 40% or more and less than 70%)
effect on wild oat (I) (wild oat [2]; 80 g/ha): 0 (Herbicidal rate of 5% or less (almost no effect))
Herbicidal effect on A: late watergrass (grade 0-5) (late watergrass; 80 g/ha applied herbicide): 5 (Herbicidal rate of 90% or more (almost completely withered))
N: redroot pigweed, herbicidal effect rating (redroot pigweed; AAH 80 g/ha): 3 (Herbicidal rate of 40% or more and less than 70%)
I: wild oat, herbicidal effect rating (wild oat [3]; AAH 80 g/ha): 0 (Herbicidal rate of 5% or less (almost no effect))
effect on persian speedwell (R) (persian speedwell [4]; 80 g/ha): 5 (Herbicidal rate of 90% or more (almost completely withered))
J: blackgrass, herbicidal effect rating (blackgrass [5]; AAH 80 g/ha): 0 (Herbicidal rate of 5% or less (almost no effect))
herbicidal effect on H (barnyard grass), rating 0-5 (barnyard grass [6]; 80 g/ha): 4 (Herbicidal rate of 70% or more and less than 90%)
herbicidal effect on E (rice flat sedge), rating 0-5 (rice flat sedge; 80 g/ha): 4 (Herbicidal rate of 70% or more and less than 90%)
H: barnyard grass, herbicidal effect rating (barnyard grass [7]; AAH 80 g/ha): 0 (Herbicidal rate of 5% or less (almost no effect))
effect on green foxtail (G) (green foxtail [8]; 80 g/ha): 5 (Herbicidal rate of 90% or more (almost completely withered))
K: Italian ryegrass, herbicidal effect rating (Italian ryegrass [9]; AAH 80 g/ha): 0 (Herbicidal rate of 5% or less (almost no effect))
effect on southern crabgrass (F) (southern crabgrass [10]; 80 g/ha): 3 (Herbicidal rate of 40% or more and less than 70%)
G: green foxtail, herbicidal effect rating (green foxtail [11]; AAH 80 g/ha): 0 (Herbicidal rate of 5% or less (almost no effect))
F: southern crabgrass, herbicidal effect rating (southern crabgrass [12]; AAH 80 g/ha): 0 (Herbicidal rate of 5% or less (almost no effect))
Herbicidal effect on C: oval-leafed pondweed (grade 0-5) (oval-leafed pondweed; 80 g/ha applied herbicide): 3 (Herbicidal rate of 40% or more and less than 70%)
P: chickweed, herbicidal effect rating (chickweed; AAH 80 g/ha): 0 (Herbicidal rate of 5% or less (almost no effect))
effect on windgrass (L) (windgrass [13]; 80 g/ha): 0 (Herbicidal rate of 5% or less (almost no effect))
M: velvetleaf, herbicidal effect rating (velvetleaf [14]; AAH 80 g/ha): 0 (Herbicidal rate of 5% or less (almost no effect))
effect on velvetleaf (M) (velvetleaf [15]; 80 g/ha): 4 (Herbicidal rate of 70% or more and less than 90%)
O: lambsquarters, herbicidal effect rating (lambsquarters [16]; AAH 80 g/ha): 0 (Herbicidal rate of 5% or less (almost no effect))
L: windgrass, herbicidal effect rating (windgrass [17]; AAH 80 g/ha): 0 (Herbicidal rate of 5% or less (almost no effect))
R: persian speedwell, herbicidal effect rating (persian speedwell [18]; AAH 80 g/ha): 0 (Herbicidal rate of 5% or less (almost no effect))
effect on barnyard grass (H) (barnyard grass [19]; 80 g/ha): 3 (Herbicidal rate of 40% or more and less than 70%)
Herbicidal effect on B: Japanese bulrush (grade 0-5) (Japanese bulrush; 80 g/ha applied herbicide): 3 (Herbicidal rate of 40% or more and less than 70%)
herbicidal effect on D (Chinese sprangletop), rating 0-5 (Chinese sprangletop; 80 g/ha): 4 (Herbicidal rate of 70% or more and less than 90%)
effect on blackgrass (J) (blackgrass [20]; 80 g/ha): 2 (Herbicidal rate of 20% or more and less than 40%)
effect on lambsquarters (O) (lambsquarters [21]; 80 g/ha): 5 (Herbicidal rate of 90% or more (almost completely withered))

Cc1nn(C)c(=O)c(-c2c(-c3ccc(F)cc3)sc3ccc(F)cc23)c1OC(=O)N1CCOCC1 [2-007]
effect on Italian ryegrass (K) (Italian ryegrass [1]; 320 g/ha): 0 (Herbicidal rate of 5% or less (almost no effect))
effect on wild oat (I) (wild oat [2]; 320 g/ha): 0 (Herbicidal rate of 5% or less (almost no effect))
Herbicidal effect on A: late watergrass (grade 0-5) (late watergrass; 320 g/ha applied herbicide): 2 (Herbicidal rate of 20% or more and less than 40%)
herbicidal effect rating, N: redroot pigweed (redroot pigweed; 320 g/ha): 2 (Herbicidal rate of 20% or more and less than 40%)
herbicidal effect rating, I: wild oat (wild oat [3]; 320 g/ha): 0 (Herbicidal rate of 5% or less (almost no effect))
effect on persian speedwell (R) (persian speedwell [4]; 320 g/ha): 1 (Herbicidal rate of 5% or more and less than 20%)
herbicidal effect rating, J: blackgrass (blackgrass [5]; 320 g/ha): 0 (Herbicidal rate of 5% or less (almost no effect))
herbicidal effect on H (barnyard grass), rating 0-5 (barnyard grass [6]; 320 g/ha): 1 (Herbicidal rate of 5% or more and less than 20%)
herbicidal effect on E (rice flat sedge), rating 0-5 (rice flat sedge; 320 g/ha): 3 (Herbicidal rate of 40% or more and less than 70%)
herbicidal effect rating, H: barnyard grass (barnyard grass [7]; 320 g/ha): 0 (Herbicidal rate of 5% or less (almost no effect))
effect on green foxtail (G) (green foxtail [8]; 320 g/ha): 0 (Herbicidal rate of 5% or less (almost no effect))
herbicidal effect rating, K: Italian ryegrass (Italian ryegrass [9]; 320 g/ha): 0 (Herbicidal rate of 5% or less (almost no effect))
effect on southern crabgrass (F) (southern crabgrass [10]; 320 g/ha): 0 (Herbicidal rate of 5% or less (almost no effect))
herbicidal effect rating, G: green foxtail (green foxtail [11]; 320 g/ha): 2 (Herbicidal rate of 20% or more and less than 40%)
herbicidal effect rating, F: southern crabgrass (southern crabgrass [12]; 320 g/ha): 1 (Herbicidal rate of 5% or more and less than 20%)
Herbicidal effect on C: oval-leafed pondweed (grade 0-5) (oval-leafed pondweed; 320 g/ha applied herbicide): 0 (Herbicidal rate of 5% or less (almost no effect))
herbicidal effect rating, P: chickweed (chickweed; 320 g/ha): 0 (Herbicidal rate of 5% or less (almost no effect))
effect on windgrass (L) (windgrass [13]; 320 g/ha): 0 (Herbicidal rate of 5% or less (almost no effect))
herbicidal effect rating, M: velvetleaf (velvetleaf [14]; 320 g/ha): 0 (Herbicidal rate of 5% or less (almost no effect))
effect on velvetleaf (M) (velvetleaf [15]; 320 g/ha): 0 (Herbicidal rate of 5% or less (almost no effect))
herbicidal effect rating, O: lambsquarters (lambsquarters [16]; 320 g/ha): 0 (Herbicidal rate of 5% or less (almost no effect))
herbicidal effect rating, L: windgrass (windgrass [17]; 320 g/ha): 0 (Herbicidal rate of 5% or less (almost no effect))
herbicidal effect rating, R: persian speedwell (persian speedwell [18]; 320 g/ha): 0 (Herbicidal rate of 5% or less (almost no effect))
effect on barnyard grass (H) (barnyard grass [19]; 320 g/ha): 0 (Herbicidal rate of 5% or less (almost no effect))
Herbicidal effect on B: Japanese bulrush (grade 0-5) (Japanese bulrush; 320 g/ha applied herbicide): 0 (Herbicidal rate of 5% or less (almost no effect))
herbicidal effect on D (Chinese sprangletop), rating 0-5 (Chinese sprangletop; 320 g/ha): 3 (Herbicidal rate of 40% or more and less than 70%)
effect on blackgrass (J) (blackgrass [20]; 320 g/ha): 0 (Herbicidal rate of 5% or less (almost no effect))
effect on lambsquarters (O) (lambsquarters [21]; 320 g/ha): 0 (Herbicidal rate of 5% or less (almost no effect))
